Results as given in ChEMBL document CHEMBL1135490, “Naphthalene dicarboxaldehyde as an electrophilic fluorogenic moiety for affinity labeling: application to opioid receptor affinity labels with greatly improved fluorogenic properties” (J Med Chem, 2002).

Biological target: Mu-type opioid receptor (Homo sapiens, UniProt P35372)
Experiment: Inhibition of [3H]- diprenorphine binding on Opioid receptor mu 1 expressed in human embryonic kidney (HEK) cells
Format: cell-based

Sequence of Mu-type opioid receptor (P35372 whole entry): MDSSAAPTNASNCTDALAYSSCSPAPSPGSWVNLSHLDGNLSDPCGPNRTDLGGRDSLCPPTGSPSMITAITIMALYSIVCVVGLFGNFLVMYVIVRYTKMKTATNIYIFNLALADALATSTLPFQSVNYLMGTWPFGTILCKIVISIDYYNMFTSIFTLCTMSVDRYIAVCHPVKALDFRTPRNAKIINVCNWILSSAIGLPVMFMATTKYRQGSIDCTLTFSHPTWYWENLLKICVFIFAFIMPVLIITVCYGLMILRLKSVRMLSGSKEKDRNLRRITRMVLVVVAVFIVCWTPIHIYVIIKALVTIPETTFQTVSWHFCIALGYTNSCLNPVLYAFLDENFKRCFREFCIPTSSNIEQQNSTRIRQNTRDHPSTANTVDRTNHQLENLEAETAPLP

Compound: O=Cc1cc2ccc(C(=O)N[C@@H]3CC[C@@]4(O)C5Cc6ccc(O)c7c6[C@@]4(CCN5CC4CC4)[C@H]3O7)cc2cc1C=O
- Ki: 744 pM
